# US20110082130A1 (LIGAND PHARMACEUTICALS, INC., priority 2006, published 2011)
# Target: T1, chimeric human H3 receptor (Homo sapiens, UniProt Q9Y5N1)
# T1 construct: made in house; host or cells: Sf9 insect cells (baculovirus); P2 membrane preparation
# Assay: Chimeric human H3 receptor GTP binding assay (agonist-stimulated GTP-gamma35S binding, Example 7)
# Format: biochemical
# Details: Table II "Ki", symbol *; assay of Example 7
# In short: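 Sf9 membranes co-expressing chimeric human H3 receptor and heterotrimeric G-protein, 35 μg/tube, in pH 7.4 Tris buffer with 10 μM GDP. Test compounds (10^−10–10^−6 M) competed against 1 μM histamine, […] GTP-gamma35S, 60 min at room temperature. Filter-bound radioactivity counted; IC50 converted to Ki by Cheng-Prusoff. Agonism/inverse agonism tested without histamine (EC50).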
# T1 sequence (Q9Y5N1 with tags, fused parts or gaps): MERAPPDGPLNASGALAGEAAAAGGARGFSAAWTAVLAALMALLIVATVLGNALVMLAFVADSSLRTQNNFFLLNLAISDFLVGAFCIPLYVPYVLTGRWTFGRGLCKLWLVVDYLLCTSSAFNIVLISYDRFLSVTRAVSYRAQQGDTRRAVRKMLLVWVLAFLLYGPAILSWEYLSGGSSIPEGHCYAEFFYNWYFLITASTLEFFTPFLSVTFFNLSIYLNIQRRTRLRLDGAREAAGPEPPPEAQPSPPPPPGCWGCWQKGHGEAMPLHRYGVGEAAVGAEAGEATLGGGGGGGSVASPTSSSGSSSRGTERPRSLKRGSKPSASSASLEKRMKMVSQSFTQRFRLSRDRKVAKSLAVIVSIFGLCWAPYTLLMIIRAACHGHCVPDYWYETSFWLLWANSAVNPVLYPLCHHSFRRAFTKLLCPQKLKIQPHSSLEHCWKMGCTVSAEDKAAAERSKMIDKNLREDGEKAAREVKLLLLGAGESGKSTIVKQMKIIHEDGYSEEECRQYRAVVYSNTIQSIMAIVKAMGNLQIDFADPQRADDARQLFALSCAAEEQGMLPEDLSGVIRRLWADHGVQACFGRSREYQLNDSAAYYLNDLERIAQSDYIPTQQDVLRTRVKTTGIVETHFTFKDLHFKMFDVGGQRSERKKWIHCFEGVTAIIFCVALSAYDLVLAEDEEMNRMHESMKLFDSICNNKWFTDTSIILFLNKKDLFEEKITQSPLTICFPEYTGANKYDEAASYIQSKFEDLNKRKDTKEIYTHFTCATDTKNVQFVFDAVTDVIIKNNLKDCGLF
row,Ki,SMILES
1,< 1 µM,"CCOc1cccc(-c2ccc3c(c2)CCN(CC(=O)N2CCN(C4CCC4)CC2)C3)c1 [Compound 482, 2-[2-(4-cyclobutylpiperazin-1-yl)-2-oxoethyl]-6-(3-ethoxyphenyl)-1,2,3,4-tetrahydroisoquinoline]"
2,< 1 µM,"CCOc1cccc(-c2ccc3c(c2)CCN(CC(=O)N2CCN(C4CCCC4)CC2)C3)c1 [Compound 483, 2-[2-(4-cyclopentylpiperazin-1-yl)-2-oxoethyl]-6-(3-ethoxyphenyl)-1,2,3,4-tetrahydroisoquinoline]"
3,< 1 µM,"COc1ccc(-c2ccc3c(c2)CCN(CC(=O)N2CCN(C4CCC4)CC2)C3)cc1F [Compound 502, 2-[2-(4-cyclobutylpiperazin-1-yl)-2-oxoethyl]-6-(3-fluoro-4-methoxyphenyl)-1,2,3,4-tetrahydroisoquinoline]"
4,< 1 µM,"COc1ccc(-c2ccc3c(c2)CCN(CC(=O)N2CCN(C4CCCC4)CC2)C3)cc1F [Compound 503, 2-[2-(4-cyclopentylpiperazin-1-yl)-2-oxoethyl]-6-(3-fluoro-4-methoxyphenyl)-1,2,3,4-tetrahydroisoquinoline]"
5,< 1 µM,"COc1cc(F)c(-c2ccc3c(c2)CCN(CC(=O)N2CCN(C4CCC4)CC2)C3)cc1F [Compound 506, 2-[2-(4-cyclobutylpiperazin-1-yl)-2-oxoethyl]-6-(2,5-difluoro-4-methoxyphenyl)-1,2,3,4-tetrahydroisoquinoline]"
6,< 1 µM,"COc1cc(F)c(-c2ccc3c(c2)CCN(CC(=O)N2CCN(C4CCCC4)CC2)C3)cc1F [Compound 507, 2-[2-(4-cyclopentylpiperazin-1-yl)-2-oxoethyl]-6-(2,5-difluoro-4-methoxyphenyl)-1,2,3,4-tetrahydroisoquinoline]"
7,< 1 µM,"COc1ccc2cc(-c3ccc4c(c3)CCN(CC(=O)N3CCN(C5CCC5)CC3)C4)ccc2c1 [Compound 509, 2-[2-(4-cyclobutylpiperazin-1-yl)-2-oxoethyl]-6-(6-methoxy-2-naphthyl)-1,2,3,4-tetrahydroisoquinoline]"
8,< 1 µM,"CC(C)Oc1cccc(-c2ccc3c(c2)CCN(CC(=O)N2CCN(C4CCC4)CC2)C3)c1 [Compound 513, 2-[2-(4-cyclobutylpiperazin-1-yl)-2-oxoethyl]-6-(3-isopropoxyphenyl)-1,2,3,4-tetrahydroisoquinoline]"
9,< 1 µM,"COc1cc(-c2ccc3c(c2)CCN(CC(=O)N2CCN(C4CCC4)CC2)C3)cc(OC)c1OC [Compound 516, 2-[2-(4-cyclobutylpiperazin-1-yl)-2-oxoethyl]-6-(3,4,5-trimethoxyphenyl)-1,2,3,4-tetrahydroisoquinoline]"

# Same assay, conditions: assay of Example 7; "*" in Ki of Table II
row,SMILES,Ki
1,"O=C(CN1CCc2cc(-c3ccc4c(c3)OCCO4)ccc2C1)N1CCN(C2CCC2)CC1 [Compound 380, 2-[2-(4-cyclobutylpiperazin-1-yl)-2-oxoethyl]-6-(2,3-dihydro-1,4-benzodioxin-6-yl)-1,2,3,4-tetrahydroisoquinoline]",< 1 µM
2,"O=C(CN1CCc2cc(-c3ccc4c(c3)OCCO4)ccc2C1)N1CCN(C2CCCC2)CC1 [Compound 381, 2-[2-(4-cyclopentylpiperazin-1-yl)-2-oxoethyl]-6-(2,3-dihydro-1,4-benzodioxin-6-yl)-1,2,3,4-tetrahydroisoquinoline]",< 1 µM
3,"CC(C)N1CCN(C(=O)CN2CCc3cc(-c4ccc(S(C)(=O)=O)cc4)ccc3C2)CC1 [Compound 382, 2-[2-(4-isopropylpiperazin-1-yl)-2-oxoethyl]-6-[4-(methylsulfonyl)phenyl]-1,2,3,4-tetrahydroisoquinoline]",< 1 µM
4,"CCC(C)N1CCN(C(=O)CN2CCc3cc(-c4ccc(OC)nc4)ccc3C2)CC1 (centres unmarked) [Compound 383, 2-[2-(4-sec-butylpiperazin-1-yl)-2-oxoethyl]-6-(6-methoxypyridin-3-yl)-1,2,3,4-tetrahydroisoquinoline]",< 1 µM
5,"COc1ccc(-c2ccc3c(c2)CCN(CC(=O)N2CCN(C(C)C)CC2)C3)cn1 [Compound 386, 2-[2-(4-isopropylpiperazin-1-yl)-2-oxoethyl]-6-(6-methoxypyridin-3-yl)-1,2,3,4-tetrahydroisoquinoline]",< 1 µM
6,"CC(C)N1CCN(C(=O)CN2CCc3cc(-c4cncnc4)ccc3C2)CC1 [Compound 387, 2-[2-(4-isopropylpiperazin-1-yl)-2-oxoethyl]-6-pyrimidin-5-yl-1,2,3,4-tetrahydroisoquinoline]",< 1 µM
7,"CS(=O)(=O)c1ccc(-c2ccc3c(c2)CCN(CC(=O)N2CCN(C4CCC4)CC2)C3)cc1 [Compound 389, 2-[2-(4-cyclobutylpiperazin-1-yl)-2-oxoethyl]-6-[4-(methylsulfonyl)phenyl]-1,2,3,4-tetrahydroisoquinoline]",< 1 µM
8,"CS(=O)(=O)c1ccc(-c2ccc3c(c2)CCN(CC(=O)N2CCN(C4CCCC4)CC2)C3)cc1 [Compound 390, 2-[2-(4-cyclopentylpiperazin-1-yl)-2-oxoethyl]-6-[4-(methylsulfonyl)phenyl]-1,2,3,4-tetrahydroisoquinoline]",< 1 µM
9,"COc1ccc(-c2ccc3c(c2)CCN(CC(=O)N2CCN(C4CCCC4)CC2)C3)cn1 [Compound 391, 2-[2-(4-cyclopentylpiperazin-1-yl)-2-oxoethyl]-6-(6-methoxypyridin-3-yl)-1,2,3,4-tetrahydroisoquinoline]",< 1 µM
10,"O=C(CN1CCc2cc(-c3cncnc3)ccc2C1)N1CCN(C2CCCC2)CC1 [Compound 392, 2-[2-(4-cyclopentylpiperazin-1-yl)-2-oxoethyl]-6-pyrimidin-5-yl-1,2,3,4-tetrahydroisoquinoline]",< 1 µM
11,"O=C(CN1CCc2cc(-c3cncnc3)ccc2C1)N1CCN(C2CCCCC2)CC1 [Compound 393, 2-[2-(4-cyclohexylpiperazin-1-yl)-2-oxoethyl]-6-pyrimidin-5-yl-1,2,3,4-tetrahydroisoquinoline]",< 1 µM
12,"CS(=O)(=O)c1cccc(-c2ccc3c(c2)CCN(CC(=O)N2CCN(C4CCCC4)CC2)C3)c1 [Compound 394, 2-[2-(4-cyclopentylpiperazin-1-yl)-2-oxoethyl]-6-[3-(methylsulfonyl)phenyl]-1,2,3,4-tetrahydroisoquinoline]",< 1 µM

# Further lines, results first:
row,Ki,SMILES
1,< 1 µM,"CS(=O)(=O)c1cccc(-c2ccc3c(c2)CCN(CC(=O)N2CCN(C4CCCCC4)CC2)C3)c1 [Compound 395, 2-[2-(4-cyclohexylpiperazin-1-yl)-2-oxoethyl]-6-[3-(methylsulfonyl)phenyl]-1,2,3,4-tetrahydroisoquinoline]"
2,< 1 µM,"CCC(C)N1CCN(C(=O)CN2CCc3cc(-c4ccc(S(C)(=O)=O)cc4)ccc3C2)CC1 (centres unmarked) [Compound 396, 2-[2-(4-sec-butylpiperazin-1-yl)-2-oxoethyl]-6-[4-(methylsulfonyl)phenyl]-1,2,3,4-tetrahydroisoquinoline]"
3,< 1 µM,"CCC(C)N1CCN(C(=O)CN2CCc3cc(-c4cncnc4)ccc3C2)CC1 (centres unmarked) [Compound 397, 2-[2-(4-sec-butylpiperazin-1-yl)-2-oxoethyl]-6-pyrimidin-5-yl-1,2,3,4-tetrahydroisoquinoline]"
4,< 1 µM,"COc1cccc(-c2ccc3c(c2)CCN(CC(=O)N2CCN(C4CCC4)CC2)C3)c1 [Compound 475, 2-[2-(4-cyclobutylpiperazin-1-yl)-2-oxoethyl]-6-(3-methoxyphenyl)-1,2,3,4-tetrahydroisoquinoline]"
5,< 1 µM,"COc1cccc(-c2ccc3c(c2)CCN(CC(=O)N2CCN(C4CCCC4)CC2)C3)c1 [Compound 476, 2-[2-(4-cyclopentylpiperazin-1-yl)-2-oxoethyl]-6-(3-methoxyphenyl)-1,2,3,4-tetrahydroisoquinoline]"
